Measurements: US10016498B2, “D-amino acid derivative-modified peptidoglycan and methods of use thereof” (priority 2012, dated 2018)

Key:
L. monocytogenes PG [1] = assay: alkDala labeling of newly synthesized PG: growth phase, vancomycin-BODIPY colocalization, antibiotic treatment; type: cell-based
[2] = system: peptidoglycan of gram-positive bacteria; assay: Incorporation of cyclooctyne D-amino acids into peptidoglycan, azido-PEG3-carboxyrhodamine labeling, flow cytometry and microscopy; type: cell-based, L. monocytogenes
Description: With all three amino acids in hand, their incorporation into the peptidoglycan of gram-positive bacteria was tested. The bacteria were grown for one-doubling time in the presence of 5 mM unnatural amino acids 30 to 32. The cells were then washed to remove excess amino acid and labeled with 20 μM of the commercially available azido-PEG3-carboxyrhodamine. This fluorophore efficiently labels terminal-alkyne-tagged peptidoglycan under copper-click conditions. The cells were then washed to remove excess probe, fixed, and studied by flow-cytometry and microscopy.
To further confirm that peptidoglycan was being labeled, a competition experiment was performed.

[3] = system: bacteria (E. coli, Bacillus subtilis, L. monocytogenes, Mycobacterium tuberculosis, Streptomyces coelicolor, Corynebacterium glutamicum); type: cell-based
L. monocytogenes = type: cell-based
E. coli PG = type: cell-based, Escherchia coli
L. monocytogenes PG [4] = assay: HPLC and mass spectrometry of muropeptides from purified PG; type: cell-based
From the text: Having ruled out other potential sites of D-alanine derivative labeling, direct evidence of its incorporation into PG was sought. PG comprises a repeating disaccharide to which is conjugated a short peptide, termed the stem peptide (FIG. 1A). Although newly synthesized PG stem peptide usually terminates in D-alanine-D-alanine, diverse bacterial phyla produce and incorporate D-amino acids other than D-alanine into those positions. (17, 18) The process is flexible; various natural and unnatural D-amino acids appear to incorporate, albeit at varying efficiencies. […] After digesting the PG with muramidase, HPLC was used to detect muropeptides by absorbance at either 204 nm (to visualize all species) or 500 nm (to identify fluorophore-containing fragments). […] PG samples from E. coli incubated in azDala alone were analyzed; and it was determined that the fraction of D-alanine that had been replaced with the synthetic analog was roughly 50% of the tetrapeptide pool and 15% of the total muropeptide population.
FIGS. 2A-D. AlkDala incorporates into L. monocytogenes PG. […] Absorbance at 204 nm, blue, and at 500 nm, red, are shown. […] The most abundant peaks detected at 500 nm were collected and subjected to analysis by mass spectrometry, (D), to identify the chemical structure of the alkDala-containing muropeptides conjugated to azido-fluor 488, (B).

[5] = system: L. monocytogenes in J774 macrophages; assay: alkDala labeling of intracellular bacteria during J774 macrophage infection; type: cell-based; details: 50 mM alkDala, azido-fluor 488

penicillin
effect of antibiotic treatment on alkDala labeling (L. monocytogenes PG [1]): much weaker effect

C[C@@H]1O[C@@H]1P(=O)(O)O [fosfomycin]
effect of antibiotic treatment on alkDala labeling (L. monocytogenes PG [1]): completely abrogated

C#CC[C@@H](N)C(=O)O [alkDala, R-propargylglycine]
labeling of listeria lacking PBP5 versus wild type [2]: enhanced labeling over wild type
cell surface labeling by microscopy [3]: Clear cell surface labeling of all species tested
labeling of dal- dat- D-alanine auxotroph compared to wildtype (L. monocytogenes): labeled more strongly
position of insertion in the PG stem peptide (E. coli PG): fourth position
position of insertion in the PG stem peptide (L. monocytogenes PG [4]; L. monocytogenes): fifth position
change of PG structure compared to D-alanine incubation (L. monocytogenes PG [4]; long periods of incubation): did not appreciably change PG structure
colocalization of signal with vancomycin-BODIPY, a marker of nascent PG (L. monocytogenes PG [1]; one generation, azido-fluor 545): colocalized
site of labeling of intracellular L. monocytogenes ([5]; longer pulse (3.5 hrs)): at the septa and poles
site of labeling of intracellular L. monocytogenes ([5]; short pulse (last 30 minutes)): labeled more at the septa

C[C@@H](O)[C@H]1C(=O)N2C(C(=O)O)=C(S[C@@H]3CN[C@H](C(=O)N(C)C)C3)[C@H](C)[C@H]12 [meropenem]
effect of antibiotic treatment on alkDala labeling (L. monocytogenes PG [1]): much weaker effect
